Laboratory results as given in PubChem BioAssay AID1919006 (Molecular Pharmacology Branch, DTP, NCI, 2023).
pIC50: −log10 of the molar value.

Tested on: 885512-296-R-J2-PDC complex spheroid growth, % test/control
Experiment: Anticancer human tumor 885512-296-R-J2-PDC patient-derived breast carcinoma cell line growth inhibition [AhR]
Conditions: for pIC50: curve of first compound; for viability, T/C: stronger effect = lower value
In short: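 Spheroids combined tumor cells with HUVEC endothelial cells and human MSCs as stroma. AhR antagonists were paired with standard or investigational drugs, each dosed in half-log steps down from near clinical Cmax, or from 10 microM where Cmax was unknown.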

[1] = second compound 0.1 µM, first compound 0.0316 µM
[2] = second compound 0.1 µM, first compound 0.1 µM
[3] = second compound 0.1 µM, first compound 0.316 µM
[4] = second compound 0.1 µM, first compound 1 µM
[5] = second compound 0.316 µM, first compound 0.0316 µM
[6] = second compound 0.316 µM, first compound 0.1 µM
[7] = second compound 0.316 µM, first compound 0.316 µM
[8] = second compound 0.316 µM, first compound 1 µM
[9] = second compound 1 µM, first compound 0.0316 µM
[10] = second compound 1 µM, first compound 0.1 µM
[11] = second compound 1 µM, first compound 0.316 µM
[12] = second compound 1 µM, first compound 1 µM
[13] = second compound 3.16 µM, first compound 0.0316 µM
[14] = second compound 3.16 µM, first compound 0.1 µM
[15] = second compound 3.16 µM, first compound 0.316 µM
[16] = second compound 3.16 µM, first compound 1 µM
[17] = second compound 10 µM, first compound 0.0316 µM
[18] = second compound 10 µM, first compound 0.1 µM
[19] = second compound 10 µM, first compound 0.316 µM
[20] = second compound 10 µM, first compound 1 µM
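Also: spheroids exposed to compounds for seven days.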

| SMILES | pIC50 (second compound 0.1 µM) | pIC50 (second compound 0.316 µM) | pIC50 (second compound 1 µM) | pIC50 (second compound 3.16 µM) | pIC50 (second compound 10 µM) | viability, T/C [1] [%] | viability, T/C [2] [%] | viability, T/C [3] [%] | viability, T/C [4] [%] | viability, T/C [5] [%] | viability, T/C [6] [%] | viability, T/C [7] [%] | viability, T/C [8] [%] | viability, T/C [9] [%] | viability, T/C [10] [%] | viability, T/C [11] [%] | viability, T/C [12] [%] | viability, T/C [13] [%] | viability, T/C [14] [%] | viability, T/C [15] [%] | other results |
| --- | --- | --- | --- | --- | --- | --- | --- | --- | --- | --- | --- | --- | --- | --- | --- | --- | --- | --- | --- | --- | --- |
| CC1COCCN1c1cc(-c2ccnn2C)c2ccnc(-c3ccn[nH]3)c2n1 (stereo not given) + Cc1ccccc1N=Nc1ccc(NC(=O)c2ccnn2C)c(C)c1 | 7.45 | 7.38 | 7.39 | 7.39 | 7.93 | 53.6 | 11.1 | 3.35 | 2.33 | 65.3 | 10.9 | 3.03 | 2.67 | 61.6 | 12 | 4.35 | 2.65 | 61.6 | 10.3 | 3.42 | viability, T/C (second compound 0.1 µM, first compound 0.00316 µM): 97.7%; viability, T/C (second compound 0.1 µM, first compound 0.01 µM): 97.6%; viability, T/C (second compound 0.316 µM, first compound 0.00316 µM): 108%; viability, T/C (second compound 0.316 µM, first compound 0.01 µM): 87.6%; viability, T/C (second compound 1 µM, first compound 0.00316 µM): 98.4%; viability, T/C (second compound 1 µM, first compound 0.01 µM): 85.5%; viability, T/C (second compound 3.16 µM, first compound 0.00316 µM): 89.8%; viability, T/C (second compound 3.16 µM, first compound 0.01 µM): 86.3%; viability, T/C [16]: 2.63%; viability, T/C (second compound 10 µM, first compound 0.00316 µM): 57.1%; viability, T/C (second compound 10 µM, first compound 0.01 µM): 47.7%; viability, T/C [17]: 38.3%; viability, T/C [18]: 7.15%; viability, T/C [19]: 2.64%; viability, T/C [20]: 2.57% |
| COc1ccc([C@@H](O)c2cc(-c3ncnc4cc(N5CCOCC5)ccc34)c(F)cc2Cl)nn1 + Cc1ccccc1N=Nc1ccc(NC(=O)c2ccnn2C)c(C)c1 | 5.08 | 5.10 | 5.18 | 5.22 | > 7.50 | 107 | 106 | 91 | 80 | 92.9 | 117 | 110 | 95.7 | 112 | 96 | 100 | 78.9 | 85.4 | 92.9 | 83.2 | viability, T/C (second compound 0.1 µM, first compound 3.16 µM): 74%; viability, T/C (second compound 0.1 µM, first compound 10 µM): 44.3%; viability, T/C (second compound 0.316 µM, first compound 3.16 µM): 71.4%; viability, T/C (second compound 0.316 µM, first compound 10 µM): 44.8%; viability, T/C (second compound 1 µM, first compound 3.16 µM): 60%; viability, T/C (second compound 1 µM, first compound 10 µM): 44.2%; viability, T/C [16]: 69%; viability, T/C (second compound 3.16 µM, first compound 3.16 µM): 66.4%; viability, T/C (second compound 3.16 µM, first compound 10 µM): 38.9%; viability, T/C [17]: 46.2%; viability, T/C [18]: 49.9%; viability, T/C [19]: 47%; viability, T/C [20]: 48.3%; viability, T/C (second compound 10 µM, first compound 3.16 µM): 38.9%; viability, T/C (second compound 10 µM, first compound 10 µM): 26.2% |
